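Growth conditions: 96-well plates. Treatment: test compound, 48 hours, 5 concentrations. Analysis: linear interpolation between bracketing concentrations; unreached endpoints set to highest concentration. GI50 = concentration required for 50% inhibition of growth. Definition used: TGI = concentration required for complete inhibition of growth.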
Tested on: ACHN renal
Test: NCI-60 cell line screen, 48 h

Row | SMILES | GI50 | TGI
1 | CCOC(=O)Nc1nc2ccc(OCC)cc2s1 | > 100 µM | > 100 µM
2 | NS(=O)(=O)c1ccccc1C(=O)N/N=C(\c1nc2ccc([N+](=O)[O-])cc2[nH]c1=O)C(O)c1ccc([N+](=O)[O-])cc1 (stereo not given) |  | > 100 µM
3 | COc1ccc2c(c1)C(=O)/C(=C/c1ccc(OCC(=O)Nc3nccs3)cc1)O2 | 2.67 µM | 20.5 µM
4 | Cc1cnc(NC(=O)C(Cc2ccccc2)NC(=O)c2ccccc2)s1 (stereo not given) | 3.49 µM | 16.9 µM
5 | CC(C)c1ccc(C(C)C(=O)N(CC2=C(C(C)c3ccccn3)c3ccccc3C2)C(C)C)cc1 (stereo not given) | 3.22 µM | > 100 µM
6 | CSc1ccc(/C=C2\CN(C)C/C(=C\c3ccc(SC)cc3)C2=O)cc1 |  | > 100 µM
7 | Cc1nc2c(nc1C)C(=O)c1ccccc1C2=O |  | 35.4 µM
8 | O=[N+]([O-])c1cnc(Sc2ccncn2)s1 | 1.81 µM | 3.24 µM
9 | O=C(Nc1ccc(I)cc1)c1cc([N+](=O)[O-])ccc1O | 9.28 µM | > 100 µM
10 | Cc1cc(=O)n2[nH]c(-c3ccc(C(C)(C)C)cc3)cc2n1 | 5.65 µM | > 100 µM
11 | O=C(O)c1cc(C(=O)O)cc(N2C(=O)c3ccccc3C2=O)c1 |  | > 100 µM
12 | COc1c2ccoc2c(/C=C/C=O)c2oc(-c3ccccc3)cc(=O)c12 | 20.8 µM | > 100 µM

Tested on: UACC-257 melanoma
Test: NCI-60 cell line screen, 48 h

Row | SMILES | GI50 | TGI
13 | CCOC(=O)Nc1nc2ccc(OCC)cc2s1 | > 100 µM | > 100 µM
14 | NS(=O)(=O)c1ccccc1C(=O)N/N=C(\c1nc2ccc([N+](=O)[O-])cc2[nH]c1=O)C(O)c1ccc([N+](=O)[O-])cc1 (stereo not given) |  | > 100 µM
15 | COc1ccc2c(c1)C(=O)/C(=C/c1ccc(OCC(=O)Nc3nccs3)cc1)O2 | 18 µM | 36.6 µM
16 | Cc1cnc(NC(=O)C(Cc2ccccc2)NC(=O)c2ccccc2)s1 (stereo not given) | 1.14 µM | 3.16 µM
17 | CC(C)c1ccc(C(C)C(=O)N(CC2=C(C(C)c3ccccn3)c3ccccc3C2)C(C)C)cc1 (stereo not given) | 3.43 µM | 38.3 µM
18 | CSc1ccc(/C=C2\CN(C)C/C(=C\c3ccc(SC)cc3)C2=O)cc1 |  | > 100 µM
19 | Cc1nc2c(nc1C)C(=O)c1ccccc1C2=O |  | 4.3 µM
20 | O=[N+]([O-])c1cnc(Sc2ccncn2)s1 | 2.94 µM | 7.5 µM
21 | O=C(Nc1ccc(I)cc1)c1cc([N+](=O)[O-])ccc1O | 6.89 µM | 34.6 µM
22 | Cc1cc(=O)n2[nH]c(-c3ccc(C(C)(C)C)cc3)cc2n1 | 4.32 µM | 49.6 µM
23 | O=C(O)c1cc(C(=O)O)cc(N2C(=O)c3ccccc3C2=O)c1 |  | > 100 µM
24 | COc1c2ccoc2c(/C=C/C=O)c2oc(-c3ccccc3)cc(=O)c12 | 11.5 µM | 24.2 µM

Tested on: MALME-3M melanoma
Test: NCI-60 cell line screen, 48 h

Row | SMILES | GI50 | TGI
25 | CCOC(=O)Nc1nc2ccc(OCC)cc2s1 | > 100 µM | > 100 µM
26 | NS(=O)(=O)c1ccccc1C(=O)N/N=C(\c1nc2ccc([N+](=O)[O-])cc2[nH]c1=O)C(O)c1ccc([N+](=O)[O-])cc1 (stereo not given) |  | > 100 µM
27 | COc1ccc2c(c1)C(=O)/C(=C/c1ccc(OCC(=O)Nc3nccs3)cc1)O2 | 0.858 µM | 4.15 µM
28 | Cc1cnc(NC(=O)C(Cc2ccccc2)NC(=O)c2ccccc2)s1 (stereo not given) | 24.2 µM | > 100 µM
29 | CC(C)c1ccc(C(C)C(=O)N(CC2=C(C(C)c3ccccn3)c3ccccc3C2)C(C)C)cc1 (stereo not given) | 2.83 µM | 8.57 µM
30 | CSc1ccc(/C=C2\CN(C)C/C(=C\c3ccc(SC)cc3)C2=O)cc1 |  | > 100 µM
31 | Cc1nc2c(nc1C)C(=O)c1ccccc1C2=O |  | 0.704 µM
32 | O=[N+]([O-])c1cnc(Sc2ccncn2)s1 | 2.07 µM | 3.94 µM
33 | O=C(Nc1ccc(I)cc1)c1cc([N+](=O)[O-])ccc1O | 19.9 µM | 70.3 µM
34 | Cc1cc(=O)n2[nH]c(-c3ccc(C(C)(C)C)cc3)cc2n1 | 2.76 µM | 29 µM
35 | O=C(O)c1cc(C(=O)O)cc(N2C(=O)c3ccccc3C2=O)c1 |  | > 100 µM
36 | COc1c2ccoc2c(/C=C/C=O)c2oc(-c3ccccc3)cc(=O)c12 | 3.57 µM | 9.17 µM

Tested on: SK-OV-3 ovarian
Test: NCI-60 cell line screen, 48 h

Row | SMILES | GI50 | TGI
37 | CCOC(=O)Nc1nc2ccc(OCC)cc2s1 | > 100 µM | > 100 µM
38 | NS(=O)(=O)c1ccccc1C(=O)N/N=C(\c1nc2ccc([N+](=O)[O-])cc2[nH]c1=O)C(O)c1ccc([N+](=O)[O-])cc1 (stereo not given) |  | > 100 µM
39 | COc1ccc2c(c1)C(=O)/C(=C/c1ccc(OCC(=O)Nc3nccs3)cc1)O2 | 17.4 µM | > 95.4 µM
40 | Cc1cnc(NC(=O)C(Cc2ccccc2)NC(=O)c2ccccc2)s1 (stereo not given) | 22.9 µM | 71.6 µM
41 | CC(C)c1ccc(C(C)C(=O)N(CC2=C(C(C)c3ccccn3)c3ccccc3C2)C(C)C)cc1 (stereo not given) | 6.63 µM | > 100 µM
42 | CSc1ccc(/C=C2\CN(C)C/C(=C\c3ccc(SC)cc3)C2=O)cc1 |  | 88.1 µM
43 | Cc1nc2c(nc1C)C(=O)c1ccccc1C2=O |  | 82.6 µM
44 | O=[N+]([O-])c1cnc(Sc2ccncn2)s1 | 21.2 µM | 45.4 µM
45 | O=C(Nc1ccc(I)cc1)c1cc([N+](=O)[O-])ccc1O | 6.15 µM | > 100 µM
46 | Cc1cc(=O)n2[nH]c(-c3ccc(C(C)(C)C)cc3)cc2n1 | 6.8 µM | 86 µM
47 | O=C(O)c1cc(C(=O)O)cc(N2C(=O)c3ccccc3C2=O)c1 |  | > 100 µM
48 | COc1c2ccoc2c(/C=C/C=O)c2oc(-c3ccccc3)cc(=O)c12 | 6.34 µM | 42.6 µM

Tested on: KM12 colon
Test: NCI-60 cell line screen, 48 h

Row | SMILES | GI50 | TGI
49 | CCOC(=O)Nc1nc2ccc(OCC)cc2s1 | 3.31 µM | > 100 µM
50 | NS(=O)(=O)c1ccccc1C(=O)N/N=C(\c1nc2ccc([N+](=O)[O-])cc2[nH]c1=O)C(O)c1ccc([N+](=O)[O-])cc1 (stereo not given) |  | > 100 µM
51 | COc1ccc2c(c1)C(=O)/C(=C/c1ccc(OCC(=O)Nc3nccs3)cc1)O2 | 0.431 µM | 18.8 µM
52 | Cc1cnc(NC(=O)C(Cc2ccccc2)NC(=O)c2ccccc2)s1 (stereo not given) | 3.82 µM | 14.7 µM
53 | CC(C)c1ccc(C(C)C(=O)N(CC2=C(C(C)c3ccccn3)c3ccccc3C2)C(C)C)cc1 (stereo not given) | 3.36 µM | 12.2 µM
54 | CSc1ccc(/C=C2\CN(C)C/C(=C\c3ccc(SC)cc3)C2=O)cc1 |  | 44.8 µM
55 | Cc1nc2c(nc1C)C(=O)c1ccccc1C2=O |  | 35.3 µM
56 | O=[N+]([O-])c1cnc(Sc2ccncn2)s1 | 10.8 µM | 23.1 µM
57 | O=C(Nc1ccc(I)cc1)c1cc([N+](=O)[O-])ccc1O | 5.36 µM | 40.9 µM
58 | Cc1cc(=O)n2[nH]c(-c3ccc(C(C)(C)C)cc3)cc2n1 | 7.04 µM | 53.9 µM
59 | O=C(O)c1cc(C(=O)O)cc(N2C(=O)c3ccccc3C2=O)c1 |  | > 100 µM
60 | COc1c2ccoc2c(/C=C/C=O)c2oc(-c3ccccc3)cc(=O)c12 | 16.5 µM | 43.5 µM

— PubChem BioAssay (NCI)
